Reference: US10533231B2, “Artificial bioluminescent enzyme” (NATIONAL INSTITUTE OF ADVANCED INDUSTRIAL SCIENCE AND …, priority 2012, dated 2020)
Where a chain is given by its changes, count along the chain named.

B1: ALuc26: artificial luciferase, SEQ ID NO: 28 (protein)
chain: MMGVKLIFAVLCVAVAQANATINENFEDIDLVAIGGSFADLETDLFTIVEDMNVISRDTDVDANRGGRGRRGKLPGKKLPLEVLKELEANAQKAGCTRGCLICLSHIKCTAKMKKWLPGRCESWEGDKETGQGGIGEAIVDIPEIPGFKNLAPMEQFIAQVDLCADCTTGCLKGLANVKCSNLLKKWLPSRCAGFANKIQAQVDTIKGLGGS
modifications: Synthetic Aluc26
B2: ALuc27: artificial luciferase, SEQ ID NO: 29 (protein)
chain: B1 chain with N150F, K179F, N182F, N197F
modifications: Synthetic ALuc27
B3: ALuc28: artificial luciferase, SEQ ID NO: 30 (protein)
chain: B1 chain with N150Y, K179Y, N182Y, N197Y
modifications: Synthetic ALuc28
B4: ALuc29: artificial luciferase, SEQ ID NO: 31 (protein)
chain: B1 chain with N150W, K179W, N182W, N197W
modifications: Synthetic ALuc29
B5: ALuc17: artificial luciferase, SEQ ID NO: 24 (protein)
chain: MMGIKVLFALICFALVQANPTENKDDIDIVGVEGKFGTTDLETDLFTIVEDMNVISRDTDVDANRADRGRRGKMPGKKLPKAVLIELEANAQKAGCHRGCLICLSHIKCTAKMKEWLPGRCESWGGDKETGQAGIVGAIVDIPEIPGFKDLEPMEQFIAQVDLCVDCTTGCLKGLANVKCSDLLKKWLPSRCATFASKIQAQVDKIKGAGGS
modifications: Synthetic ALuc17
B6: ALuc19: artificial luciferase, SEQ ID NO: 25 (protein)
chain: MMGIKVLFALICFALVQANPTENKDDIDIVGVEGKFGTTDLETDLFTIVEDMNVISRDTDVDANRADRGRRGRKLPGKKLPKEVLKILEANAQRAGCHRGCLICLSHIKCTAKMKQWLPGRCESWEGDKETGQGGIGGPIVDIGVLGPEIPGFKDLEPMEQFIAQVDLCVDCTTGCLKGLANVKCSDLLKKWLPSRCATFASKIQAQVDKIKGAGGS
modifications: Synthetic ALuc19
B7: ALuc21: artificial luciferase, SEQ ID NO: 26 (protein)
chain: MMGIKVLFALICFALVQANATINEEDIDLVAIGGSFATTDLETDLFTIVEDMNVISRDTDVDANRADRGRRGKLPGKKLPLEVLKELEANAQKAGCTRGCLICLSHIKCTAKMKKWLPGRCESWEGDKETGQGGIGEAIVDIPEIPGFKDLEPMEQFIAQVDLCVDCTTGCLKGLANVKCSDLLKKWLPSRCATFASKIQAQVDKIKGAGGS
modifications: Synthetic ALuc21

Test system: artificial luciferase (ALuc)
Assay: Effects of heavy metal ions as additive for assay buffer (Example 2-3)
Assay type: cell-based
Conditions: 1 ppm in HBSS buffer after C3 lysis
Method: This example examined the effects of a heavy metal ion as an additive for an assay buffer (FIG. 25). […] After 16-hour incubation in a CO2 incubator, 50 μL of a C3 solution was added to each well to allow for cell lysis for 20 minutes. 1 ppm of each type of heavy metal ion shown in FIG. 25 and 50 μL of a substrate-containing HBSS buffer were added to the lysate simultaneously, and the relative luminescence intensities were immediately measured with an LAS-4000. After the substrate-containing assay buffer was further added, the luminescence at the 8- and 16-minute point was measured to examine the luminescence stability.

Row | Molecule | effect of heavy metal additive on luminescence intensity | comprehensive evaluation of luminescence intensity and stability
1 | [Ca+2] [Ca(II)] | suitable to be added to C3 and HBSS | 
2 | [Co+2] [Co(II)] | significantly decrease the luminescence intensity | 
3 | [Mg+2] [Mg(II)] | suitable to be added to C3 and HBSS | 
4 | [Al+3] [Al(III)] | suitable to be added to C3 and HBSS | excellent additives
5 | [Fe+3] [Fe(III)] | suitable to be added to C3 and HBSS | excellent additives
6 | [Cu+2] [Cu(II)] | suitable to be added to C3 and HBSS | excellent additives
7 | [Mo] [Mo(VI)] |  | excellent additives

Test system: COS-7 cells
Assay: Enzymatic activity confirmation of ALuc (section 3-1, 3-2)
Assay type: cell-based, African monkey
Conditions: vs conventional copepod luciferases
Method: First, using a known lipid reagent for gene introduction, an expression vector encoding ALuc is introduced into African monkey-derived COS-7 cells; as a control, an expression vector having a known GLuc without any mutation into the cells is also introduced in the same manner. At a predetermined time (from 10 to 20 hours, for example, 16 hours) after the introduction of the vector, a cell lysate is prepared using a known lysis reagent.
Thereafter, the cell lysate is mixed with a known substrate solution containing coelenterazine, and its color intensity, temporal stability in luminescence, etc., are measured.
The luminescence intensity may be found by measuring the intensity at a specific wavelength using a known luminescence spectrophotometer after addition of a known substrate. By performing the measurement every minute, the temporal stability in luminescence can be evaluated. To measure a shift to a longer wavelength, scanning of the entire wavelength is necessary.

Row | Molecule | luminescence stability (general statement)
8 | B1 | remarkably stable luminescence signals
9 | B2 | remarkably stable luminescence signals
10 | B3 | remarkably stable luminescence signals
11 | B4 | remarkably stable luminescence signals
12 | B5 | remarkably stable luminescence signals
13 | B6 | remarkably stable luminescence signals
14 | B7 | remarkably stable luminescence signals
